3 compounds from patent publication US5447900A, “Thermosensitive recording material” (priority 1993, dated 1995) can be followed below.

A short description of this series: Acid dissociation constant (pKa) by titration with sodium hydroxide, pH meter, in water/methanol 1:1. The class given is physicochemical. As to the method: In Table 1, the acid dissociation constant of a compound was measured by the following method:
A commercially available pH meter "HORIBA N-8F" (Trademark), made by Horiba Ltd., equipped with three composite electrodes, was calibrated by using the following two solutions:
Water/methanol solution (with a volume ratio of 1:1) containing 0.05 mol/l potassium hydrogenphthalate.
Water/methanol solution (with a volume ratio of 1:1) containing 0.01 mol/l tris(hydroxy)aminomethane and 0.01 mol/l tris(hydroxy)aminomethane hydrochloride.
Then, a solution A was prepared in such a manner that 0.4969 g of 4-(4'-phenoxybutoxy)phthalic acid (Compound No. 1 in Table 1) and 0.5844 g of sodium chloride,were dissolved in a mixed solvent consisting of 50 ml of water and 50 ml of methanol.
In addition, a 0.1068 mol/l sodium hydroxide aqueous solution was prepared by standardizing the solution with potassium hydrogen-phthalate. This solution was hereinafter referred to as a solution B.
The solution A was placed in a beaker and stirred with a stirrer. The solution B was added dropwise in an amount of 0.5 to 1.0 ml to the solution A, with stirring, through a buret. When the pH of the solution A reached a constant value, the pH was measured. The pH was further measured with further addition of the solution B to the solution A, so that a titration curve was obtained. This titration curve was fitted in a theoretical formula by using a computer program, so that an acid dissociation constant of the compound No. 1 was calculated.

Where [1] appears, read: comparative color developer, solvent not given.
[2] abbreviates: mixed solvent of water and methanol, volume ratio 1:1.

SMILES strings stand for the structures.

Consider `CC(C)(c1ccc(O)cc1)c1ccc(O)cc1` [4,4'-isopropylidene diphenol], for which, under setting [1], the “acid dissociation constant pKa1 (printed pKal)” value is given as roughly 10.7 and the “acid dissociation constant pKa2” value came out at 10.7. As for `O=C(O)c1ccc(OCCCCOc2ccccc2)cc1C(=O)O` [Compound No. 1, 4-(4'-phenoxybutoxy)phthalic acid], under setting [2], the “Acid Dissociation Constant pKa1” value is recorded as 3.55 and the “acid dissociation constant pKa2” value was found to be 6.59.

Regarding `CC(C)Oc1ccc(S(=O)(=O)c2ccc(O)cc2)cc1` [4-isopropoxy-4'-hydroxydiphenylsulfone], the “acid dissociation constant pKa” value under setting [1] is listed as 8.27.
